Results: the supplement of paper PMC10307832

compound: CC1=C(C(=NN1)C)CC2=C(C3=C(S2)N(C(=O)N(C3=O)C)CC(C)C)C(=O)N4C[C@@H](CO4)O + CCNC(=O)c1noc(-c2cc(C(C)C)c(O)cc2O)c1-c1ccc(CN2CCOCC2)cc1 [Luminespib] (partner 0.01 µM); assay: relative viability (nuclei count vs DMSO), 5 days (fraction); higher = more cells survive; conditions: first compound 0.0025 µM
Method in brief: (§1)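 Values are medians from duplicate plates. Each reflects relative viability, defined as the nuclei count of treated wells over that of vehicle wells. Lung cancer cell lines in 1536-well plates were pin-tool dosed one day after seeding with one drug alone or with a fixed anchor-drug dose plus five library-drug doses (not always all listed) in √10 steps, then fixed, stained and imaged at 4× after 5 days.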

First: NCI-H522
Second: NCI-H1623
The relative viability of the first is higher: 1.29 for the first, 0.64 for the second.

Going from NCI-H727 to NCI-H1650, the relative viability falls from 0.309 to 0.188.

Compared with NCI-H1993, SW 1573 is lower in relative viability: 0.727 for the first, 0.32 for the second.

First: NCI-H838
Second: LCLC-103H
The relative viability of the first is lower: 0.295 for the first, 0.966 for the second.

Going from NCI-H520 to NCI-H2126, the relative viability rises from 0.211 to 0.959.

Going from EMC-BAC-2 to NCI-H2085, the relative viability falls from 1.17 to 0.443.

NCI-H1666 and NCI-H596 are the same in relative viability: 0.991 for the first, 0.991 for the second.

Compared with LK-2, NCI-H2087 is lower in relative viability: 0.219 for the first, 0.142 for the second.

First: NCI-H2342
Second: SK-MES-1
The relative viability of the first is lower: 0.768 for the first, 1.01 for the second.

First: H3255
Second: COR-L23
The relative viability of the first is higher: 0.953 for the first, 0.756 for the second.

First: COR-L 105
Second: LOU-NH91
The relative viability of the first is higher: 0.739 for the first, 0.371 for the second.

Compared with ChaGo-K-1, NCI-H2170 is lower in relative viability: 0.671 for the first, 0.607 for the second.

First: NCI-H2405
Second: HOP-62
The relative viability of the first is lower: 0.778 for the first, 0.892 for the second.

Going from HCC-44 to SW 900, the relative viability falls from 0.97 to 0.186.

Compared with LU99A, NCI-H1792 is higher in relative viability: 0.337 for the first, 0.458 for the second.

With NCI-H1563 the relative viability was 0.553.

same assay, conditions: first compound 0.007906 µM

Going from NCI-H522 to NCI-H1623, the relative viability falls from 1.22 to 0.601.

Compared with NCI-H727, NCI-H1650 is lower in relative viability: 0.378 for the first, 0.192 for the second.

Going from NCI-H1993 to SW 1573, the relative viability falls from 0.706 to 0.322.

Going from NCI-H838 to LCLC-103H, the relative viability rises from 0.265 to 0.885.

Compared with NCI-H520, NCI-H2126 is higher in relative viability: 0.24 for the first, 0.845 for the second.

Going from EMC-BAC-2 to NCI-H2085, the relative viability falls from 1.23 to 0.412.

Going from NCI-H1666 to NCI-H596, the relative viability rises from 1 to 1.12.

First: LK-2
Second: NCI-H2087
The relative viability of the first is lower: 0.148 for the first, 0.217 for the second.

Going from NCI-H2342 to SK-MES-1, the relative viability falls from 0.79 to 0.782.

Compared with H3255, COR-L23 is lower in relative viability: 1.04 for the first, 0.744 for the second.

Compared with COR-L 105, LOU-NH91 is lower in relative viability: 0.807 for the first, 0.359 for the second.

Going from ChaGo-K-1 to NCI-H2170, the relative viability rises from 0.597 to 0.79.

First: NCI-H2405
Second: HOP-62
The relative viability of the first is lower: 0.849 for the first, 1.01 for the second.

Compared with HCC-44, SW 900 is lower in relative viability: 1.11 for the first, 0.182 for the second.

First: LU99A
Second: NCI-H1792
The relative viability of the first is lower: 0.297 for the first, 0.488 for the second.

For NCI-H1563, the relative viability was 0.542.

same assay, conditions: first compound 0.025 µM

First: NCI-H522
Second: NCI-H1623
The relative viability of the first is higher: 1.11 for the first, 0.503 for the second.

First: NCI-H727
Second: NCI-H1650
The relative viability of the first is higher: 0.387 for the first, 0.203 for the second.

First: NCI-H1993
Second: SW 1573
The relative viability of the first is higher: 0.765 for the first, 0.443 for the second.

Going from NCI-H838 to LCLC-103H, the relative viability rises from 0.312 to 0.976.

Compared with NCI-H520, NCI-H2126 is higher in relative viability: 0.217 for the first, 0.878 for the second.

First: EMC-BAC-2
Second: NCI-H2085
The relative viability of the first is higher: 1.2 for the first, 0.412 for the second.

Compared with NCI-H1666, NCI-H596 is lower in relative viability: 1.06 for the first, 0.992 for the second.

First: LK-2
Second: NCI-H2087
The relative viability of the first is higher: 0.223 for the first, 0.175 for the second.

Compared with NCI-H2342, SK-MES-1 is higher in relative viability: 0.855 for the first, 0.969 for the second.

First: H3255
Second: COR-L23
The relative viability of the first is higher: 0.861 for the first, 0.666 for the second.

Going from COR-L 105 to LOU-NH91, the relative viability falls from 0.533 to 0.331.

Compared with ChaGo-K-1, NCI-H2170 is higher in relative viability: 0.583 for the first, 0.753 for the second.

Compared with HOP-62, HCC-44 is higher in relative viability: 0.809 for the first, 1.03 for the second.

Compared with SW 900, LU99A is higher in relative viability: 0.16 for the first, 0.203 for the second.

Going from NCI-H1792 to NCI-H1563, the relative viability rises from 0.416 to 0.524.

same assay, conditions: first compound 0.07906 µM

Compared with NCI-H522, NCI-H1623 is lower in relative viability: 0.644 for the first, 0.499 for the second.

Going from NCI-H727 to NCI-H1650, the relative viability falls from 0.369 to 0.192.

Going from NCI-H1993 to SW 1573, the relative viability falls from 0.65 to 0.213.

Going from NCI-H838 to LCLC-103H, the relative viability rises from 0.273 to 0.939.

First: NCI-H520
Second: NCI-H2126
The relative viability of the first is lower: 0.199 for the first, 0.892 for the second.

Going from EMC-BAC-2 to NCI-H2085, the relative viability falls from 1.32 to 0.41.

Compared with NCI-H1666, NCI-H596 is lower in relative viability: 1.04 for the first, 1.03 for the second.

Going from LK-2 to NCI-H2087, the relative viability falls from 0.202 to 0.168.

Compared with NCI-H2342, SK-MES-1 is higher in relative viability: 0.784 for the first, 0.846 for the second.

Going from H3255 to COR-L23, the relative viability falls from 0.944 to 0.549.

Going from COR-L 105 to LOU-NH91, the relative viability falls from 0.638 to 0.363.

First: ChaGo-K-1
Second: NCI-H2170
The relative viability of the first is lower: 0.677 for the first, 0.725 for the second.

Going from NCI-H2405 to HOP-62, the relative viability rises from 0.706 to 0.824.

Compared with HCC-44, SW 900 is lower in relative viability: 0.958 for the first, 0.189 for the second.

First: LU99A
Second: NCI-H1792
The relative viability of the first is lower: 0.224 for the first, 0.338 for the second.

In the case of NCI-H1563, the relative viability is reported as 0.492.

same assay, conditions: first compound 0.25 µM

Compared with NCI-H522, NCI-H1623 is lower in relative viability: 0.586 for the first, 0.554 for the second.

Compared with NCI-H727, NCI-H1650 is lower in relative viability: 0.387 for the first, 0.217 for the second.

First: NCI-H1993
Second: SW 1573
The relative viability of the first is higher: 0.749 for the first, 0.332 for the second.

First: NCI-H838
Second: LCLC-103H
The relative viability of the first is lower: 0.239 for the first, 1.1 for the second.

Compared with NCI-H520, NCI-H2126 is higher in relative viability: 0.185 for the first, 0.951 for the second.

Going from EMC-BAC-2 to NCI-H2085, the relative viability falls from 1.29 to 0.343.

Going from NCI-H1666 to NCI-H596, the relative viability rises from 1.1 to 1.24.

Compared with LK-2, NCI-H2087 is lower in relative viability: 0.186 for the first, 0.16 for the second.

First: NCI-H2342
Second: SK-MES-1
The relative viability of the first is lower: 0.602 for the first, 0.888 for the second.

Going from H3255 to COR-L23, the relative viability falls from 0.887 to 0.765.

Going from COR-L 105 to LOU-NH91, the relative viability falls from 0.617 to 0.223.

First: ChaGo-K-1
Second: NCI-H2170
The relative viability of the first is lower: 0.546 for the first, 0.793 for the second.

Going from NCI-H2405 to HOP-62, the relative viability rises from 0.684 to 0.986.

First: HCC-44
Second: SW 900
The relative viability of the first is higher: 1.38 for the first, 0.15 for the second.

First: LU99A
Second: NCI-H1792
The relative viability of the first is lower: 0.237 for the first, 0.379 for the second.

NCI-H1563 gave a relative viability of 0.509.

compound: CC1=C(C(=NN1)C)CC2=C(C3=C(S2)N(C(=O)N(C3=O)C)CC(C)C)C(=O)N4C[C@@H](CO4)O + Cc1nc(Nc2ncc(C(=O)Nc3c(C)cccc3Cl)s2)cc(N2CCN(CCO)CC2)n1 [Dasatinib] (partner 0.075 µM); assay: as above; conditions: first compound 0.0025 µM
Method in brief: as §1

Going from NCI-H522 to NCI-H1623, the relative viability falls from 0.971 to 0.505.

With NCI-H727 the relative viability was 0.293.
